In patent publication US20100022559A1, “BISOXIMES AS FUNGICIDES” (BAYER CROPSCIENCE AG, priority 2006, published 2010) one finds logP data, which are given here for 64 molecules.

The first data set can be described thus: logP determination by HPLC on a reversed-phase column (C 18), EEC Directive 79/831 Annex V.A8. It counts as physicochemical. As to conditions: method marked [a] in Table 1. The method, then: The stated logP values were determined in accordance with EEC Directive 79/831 Annex V.A8 by HPLC (high performance liquid chromatography) on a reversed-phase column (C 18). Temperature: 43° C.
Consider `CC(=NOCC(C)(C)CON=C(C)c1cccc(-c2ccccc2)n1)c1cccc(-c2ccccc2)n1` [Compound 575], for which the logP was 7.36^[a].

Staying with this data set, now noted: method marked [b] in Table 1.
Consider `CC(=NOCC1(CON=C(C)c2cc(C)cc(C)n2)CC(C(C)C)=NO1)c1cc(C)cc(C)n1` (stereo not drawn) [compound 638], for which the logP was 2.18^[b].
Still for that read-out and setting: in the case of `COC(CON=C(C)c1cc(C)cc(C)n1)CON=C(C)c1cc(C)cc(C)n1` (stereo not drawn) [Compound 552] it was 1.56^[b]; in that of `CC(=NOCC(CON=C(C)c1cc(C)cc(C)n1)c1ccccc1)c1cc(C)cc(C)n1` (stereo not drawn) [Compound 554], 2.96^[b]; in that of `CC(=NOCC(CON=C(C)c1nc(C)ccc1C)c1ccccc1)c1nc(C)ccc1C` (single isomer, unassigned) [compound 755], 3.62^[b].
Regarding `CC(=NOCC(CON=C(C)c1nc(C)ccc1C)C(C)(C)C)c1nc(C)ccc1C` (single isomer, unassigned) [compound 756], the logP was 3.22^[b].
For the molecule `CCCC(=NOCC1(CON=C(CCC)c2cccc(C)n2)CC(CC)=NO1)c1cccc(C)n1` (stereo not drawn) [compound 617], the logP is 5.08^[b].
Turning to `CCC(CON=C(C)c1nc(C)ccc1C)CON=C(C)c1nc(C)ccc1C` (single isomer, unassigned) [compound 750], the logP was 2.57^[b].
As for `CC(=NOCC1(CON=C(C)c2cccc(C)n2)CC(C(C)C)=NO1)c1cccc(C)n1` (stereo not drawn) [compound 597], the logP was 3.28^[b].

Staying with this data set, now noted: method marked [c] in Table 1.
In the case of `COC(CON=C(C)c1cc(C)cc(C)n1)CON=C(C)c1cc(C)cc(C)n1` (stereo not drawn) [Compound 552], the logP is 4.91^[c].
Still for that read-out and setting: the same measure for `CC(=NOCC(CON=C(C)c1cc(C)cc(C)n1)c1ccccc1)c1cc(C)cc(C)n1` (stereo not drawn) [Compound 554]: 6.33^[c]; for `CC(=NOCC(CON=C(C)c1nc(C)ccc1C)c1ccccc1)c1nc(C)ccc1C` (single isomer, unassigned) [compound 755]: 5.45^[c].
As for `CC(=NOCC(CON=C(C)c1nc(C)ccc1C)C(C)(C)C)c1nc(C)ccc1C` (single isomer, unassigned) [compound 756], the logP was 5.20^[c].
In the case of `CCC(CON=C(C)c1nc(C)ccc1C)CON=C(C)c1nc(C)ccc1C` (single isomer, unassigned) [compound 750], the logP was 4.46^[c].

The same data set, now with this note: method marker [a] (footnote not shown); isomer A / isomer B / isomer mixture as noted in the cell.
`CC(=NOCCCON=C(C)c1cncc(C)c1)c1cncc(C)c1` [compound 163]: the logP is listed as 1.54^a].
The same measure, in the same setting: in the case of `CCC(=NOCC(C)CON=C(CC)c1ncccc1C)c1ncccc1C` (single isomer, unassigned) [compound 100] it was 3.58^[a] (isomer A); in that of `CC(=NOCCCC(=O)ON=C(C)c1cccc(C)n1)c1cccc(C)n1` [compound 171], 2.44^[a].
Same read-out and setting: the same measure for `C=CCCC(=NOCC(C)CON=C(CCC=C)c1ncccc1C)c1ncccc1C` (stereo not drawn) [compound 130]: 5.06^[a].
Still for that read-out and setting: in the case of `CC(=NOCCCON=C(C)c1cccc(CC(C)C)n1)c1cccc(CC(C)C)n1` [Compound 134] it was 7.36^[a]; in that of `CC(=NOCC(C)CON=C(C)c1cccnc1C)c1cccnc1C` (mixture of isomers) [compound 234], 1.22^[a]; in that of `CC(=NOCC(C)CON=C(C)c1cccnc1Cl)c1cccnc1Cl` (mixture of isomers) [compound 107], 3.87^[a].
As for `CC(=NOCC(=O)ON=C(C)c1cccc(C)n1)c1cccc(C)n1` [compound 158], the logP is 2.50^[a].
On to `CC(=NOCCCON=C(C)c1ncccc1C)c1ncccc1C` (single isomer, unassigned) [compound 85], for which the logP is 2.15^[a] (isomer A).

Staying with this data set, now noted: method marker [b]; isomer A / isomer B / isomer mixture as noted in the cell.
With `C=C(CON=C(C)c1cccc(C)n1)CON=C(N)c1ncc(Cl)cc1Cl` [compound 246], the logP was 3.00^[b].
On the same count and under the same terms, in the case of `CC(=NOC(C)CC(C)ON=C(C)c1cccc(C)n1)c1cccc(C)n1` (stereo not drawn) [Compound 248] it was 4.10^[b]; in that of `Cc1nc(/C(N)=N/OCCCCO/N=C(\N)c2nc(C)c3c(n2)CCCC3)nc2c1CCCC2` [compound 36], 2.58^[b]; in that of `CCC(=NOCC(C)CON=C(CC)c1nc(C)c(C)c(C)n1)c1nc(C)c(C)c(C)n1` (stereo not drawn) [Compound 254], 4.38^[b].
As to `CC(=NOCCON=C(C)c1cccnc1)c1cccnc1` [Compound 32], the logP was 1.32^[b].
The same measure, in the same setting: in the case of `CC(=NOCCON=C(C)c1nc(C)cs1)c1nc(C)cs1` [compound 52] it was 3.63^[b]; in that of `CC(=NOCCCON=C(C)c1cnc(-c2ccccc2)s1)c1cnc(-c2ccccc2)s1` [compound 49], 7.07^[b]; in that of `C=C(CON=C(C)c1ccc(C)cn1)CON=C(C)c1ccc(C)cn1` [compound 152], 3.36^[b].
For the molecule `CC(=NOCC(=O)ON=C(C)c1cccc(C)n1)c1cccc(C)n1` [compound 158], the logP is recorded as 2.57^b].
`CC(=NOCC1(CON=C(C)c2cccc(C)n2)COC1)c1cccc(C)n1` [compound 19]: the logP was 2.45^[b].

Still in this data set, the particulars now being: value marked [a].
With `CC(=NOCC1CCCCC1ON=C(C)c1cccc(C)n1)c1cccc(C)n1` (stereo not drawn) [Compound 823], the logP is 5.9^[a].
On the same count and under the same terms, the same measure for `CC(=NOC1CCCC(ON=C(C)c2cccc(C)n2)C1)c1cccc(C)n1` (mixture of isomers) [compound 801]: 4.96^[a]; for `CC(=NOCC(C)CON=C(C)c1cc(C2CC2)cc(C)n1)c1cccc(C)n1` (stereo not drawn) [compound 845]: 3.21^[a]; for `C=C(CON=C(N)c1ccc(C)c(C)n1)CON=C(Cl)c1cccc(C)n1` [compound 831]: 4.06^[a].
Still for that read-out and setting: in the case of `CC(=NOCC(C)CON=C(C)c1nc(C)c(C)cc1C)c1nc(C)c(C)cc1C` (stereo not drawn) [Compound 255] it was 2.19^[a]; in that of `CCOC(=O)c1cccc(C(C)=NOCCCON=C(C)c2cccc(C(=O)OCC)n2)n1` [compound 257], 4.06^[a]; in that of `CCC(=NOCC(C)(C)CON=C(CC)c1ccc(C)c(C)n1)c1ccc(C)c(C)n1` [Compound 280], 5.58^[a].
As for `CC(=NOCCC(C)CCON=C(C)c1ccc(C(F)(F)F)cn1)c1ccc(C(F)(F)F)cn1` (stereo not drawn) [compound 832], the logP is 7.36^[a].

Staying with this data set, now noted: value marked [b].
On to `Cc1cc(C)nc(C(N)=NOC/C=C/CON=C(N)c2nc(C)cc(C)n2)n1` [Compound 772], for which the logP is 1.62^[b].
In the case of `C/C(=N\OCC(C)(C)CO/N=C(\C)c1cncc(C)n1)c1cccc(C)n1` [compound 492], the logP is 4.41^[b].
Same read-out and setting: the same measure for `CCC(=NOCCCCON=C(C)c1cccc(C)n1)c1cccc(C)n1` [compound 333]: 4.10^[b]; for `CC(=NOCCCCCCON=C(C)c1cccc(C)n1)c1cccc(Cl)c1` [compound 456]: 6.58^[b]; for `COc1ccc(C(C)=NOCC(C)CON=C(C)c2ccc(OC)c(C)n2)nc1C` (stereo not drawn) [Compound 825]: 5.21^[b].
On to `CC(=NOCCCCCCON=C(c1cccc(C)n1)C(C)C)c1cccc(C)n1` (single isomer, unassigned) [compound 527], for which the logP was 6.03^[b](isomer B).
Same read-out and setting: the same measure for `CC(=NOCCCCCCON=C(Cc1ccccc1)c1ncccc1C)c1cccc(C)n1` (single isomer, unassigned) [compound 531]: 4.97^b] (isomer )A; for `C=C(CON=C(C)c1cccc(C)n1)CON=C(CCC)c1ncccc1C` (single isomer, unassigned) [compound 534]: 3.65^[b] (isomer A); for `CC(=NOC/C=C/CON=C(C)c1nc(C)c(C)s1)c1nc(C)c(C)s1` (single isomer, unassigned) [compound 767]: 4.92^[b] (isomer B).
On the same count and under the same terms, the same measure for `COCc1cc(C)nc(C(C)=NOCC(C)CON=C(C)c2cc(COC)cc(C)n2)c1` (stereo not drawn) [Compound 871]: 4.06^[b].
For `COc1cc(C)nc(C(C)=NOCC(C)CON=C(C)c2cccc(C)n2)c1` (stereo not drawn) [Compound 501], the logP was 3.37^[b].
On the same count and under the same terms, in the case of `CC(=NOCC(C)(C)CON=C(C)c1cccc(C)n1)c1ccc(C)nc1` [Compound 416] it was 2.41^[b]; in that of `Cc1nc(C(N)=NOC/C=C\CON=C(N)c2nc(C)c(Cl)c(C)n2)nc(C)c1Cl` [compound 775], 2.77^[b]; in that of `CCC(=NOCC(C)(C)CON=C(C)c1cccc(C)n1)c1cccc(C)n1` [Compound 372], 5.33^[b].
For the molecule `CCC(=NOCC(C)(C)CON=C(CC)c1cccc(C)n1)c1cccc(C)n1` [compound 883], the logP was 6.81^[b].
Turning to `CC(=NOCC(C)CON=C(CC(C)C)c1ncccc1C)c1cccc(C)n1` (stereo not drawn) [compound 422], the logP was 4.51^[b].
Still for that read-out and setting: in the case of `COc1cc(C)nc(C(C)=NOCCCCCCON=C(C)c2cccc(C)n2)c1` [compound 462] it was 4.15^[b]; in that of `C=CCCC(=NOCCCCCCON=C(C)c1cccc(C)n1)c1ncccc1C` (single isomer, unassigned) [compound 524], 5.65^[b] (isomer B); in that of `C=C(CON=C(C)c1cccc(C(F)(F)F)c1)CON=C(C)c1cccc(C)n1` [compound 399], 5.36^[b].
`COCc1nc(C(N)=NOC/C=C/CON=C(N)c2nc(COC)c(C)c(COC)n2)nc(COC)c1C` (single isomer, unassigned) [compound 768]: the logP is 1.68^[b] (isomer A).
Take `CC(=NOCCCCON=C(C)c1cccc(C)n1)c1ccc(Cl)cc1` [compound 444]: the logP was 5.54^[b].
On the same count and under the same terms, the same measure for `CC(=NOCC(C)(C)CON=C(C)c1cccc(C)n1)c1ccc(Cl)cc1` [compound 485]: 6.22^[b].
Consider `CC(=NOCCCCCCON=C(C)c1nccc(C)n1)c1cccc(C)n1` [Compound 509], for which the logP was 3.39^[b].
As to `C=C(CON=C(C)c1cccnc1)CON=C(C)c1cccc(C)n1` [compound 407], the logP was 2.15^[b].
On the same count and under the same terms, in the case of `CC(=NOCC(C)CON=C(C)c1cc(C)cc(C)n1)c1cccc(C)n1` (stereo not drawn) [Compound 499] it was 2.76^[b]; in that of `C=C(CON=C(C)c1ccc(OC)c(OC)c1)CON=C(C)c1cccc(C)n1` [compound 403], 3.75^[b]; in that of `CC(=NOCC(O)CON=C(C)c1ccc(C)c(C)n1)c1ccc(C)c(C)n1` (stereo not drawn) [compound 323], 1.36^[b].
The same measure, in the same setting: the same measure for `CC(=NOCCCCCCON=C(C)c1cccc(C)n1)c1cnccn1` [compound 513]: 4.25^[b].

The same data set, now with this note: value marked [c].
As for `COc1ccc(C(C)=NOCC(C)CON=C(C)c2ccc(OC)c(C)n2)nc1C` (stereo not drawn) [Compound 825], the logP was 5.58^[c].
Same read-out and setting: in the case of `COCc1cc(C)nc(C(C)=NOCC(C)CON=C(C)c2cc(COC)cc(C)n2)c1` (stereo not drawn) [Compound 871] it was 5.57^[c].
Same read-out and setting: the same measure for `CC(=NOCC(C)CON=C(C)c1cc(C2CC2)cc(C)n1)c1cccc(C)n1` (stereo not drawn) [compound 845]: 6.40^[c]; for `CCC(=NOCC(C)(C)CON=C(CC)c1cccc(C)n1)c1cccc(C)n1` [compound 883]: 7.36^[c].
On to `CC(=NOC[Si](C)(C)CON=C(C)c1ccc(C)c(C)n1)c1ccc(C)c(C)n1` [Compound 870], for which the logP is 7.05^[c].
Take `CC(=NOCC(O)CON=C(C)c1ccc(C)c(C)n1)c1ccc(C)c(C)n1` (stereo not drawn) [compound 323]: the logP was 3.81^[c].
